Where “and” joins values, the source holds several entries; their conditions need not be identical. Identical values can stand only once. Like-named read-outs stand apart in the source and are kept apart here.

Assay [1] relates to P. aeruginosa (ATCC 9027). More on the design: method as in PMID 35990476. Particulars: cited from earlier work.
Assay [2] relates to EC electron transport chain. The experiment in a line: Electron transport activity (NADH-driven H+ pumping, ACMA quenching), E. coli DK8/pASH20 vesicles. The class given is biochemical, Escherichia coli. As to the method: Determination of electron transport activity. In an opaque black 96-well plate, inverted membrane
vesicles from PA or E. coli DK8 pASH20 were added to HMK buffer containing 0.3 µg/mL 9-amino-6-chloro-
2-methoxyacridine (ACMA) and 0-64 µg/mL test compound in DMSO. After measurement of baseline
ACMA fluorescence for 60 s, redox-driven H+ pumping was initiated by addition of NADH to 0.8 mM, and
fluorescence quenching was monitored for 120 s before addition of nigericin to 0.5 µg/mL. Relative
activity is reported as the minimum fluorescence value normalized to the maximum fluorescence value
following addition of nigericin. […]

Assay [3] deals with T1, PA ATP synthase cIle65Ala mutant (Pseudomonas aeruginosa, UniProt Q9HT15, I65A).
T1 construct: expressed in transfected cells; host or cells: E. coli K-12 DK8 transformed with pASH20 carrying mutated atpE
The experiment in a line: NADH-driven ATP synthesis inhibition, DK8/pASH20 cI65A membrane vesicles. The class given is biochemical. The procedure: (§1) P. aeruginosa (ATCC 9027) was streaked onto a 10% TSB agar plate and incubated at room temperature for 72 h. A single colony was resuspended in 100 μL of H2O, and 5 μL was used as the DNA template for PCR with Q5 polymerase (NEB) and […] each of forward and reverse primers. Primers were complementary to regions flanking the atp operon and included sequences for HindIII and NdeI restriction sites (see the SI for primer sequences). The resulting 6.9 kbp DNA fragment was digested with HindIII and NdeI and ligated into digested vector pBR322 (New England Biolabs). The resultant pASH20(-i) plasmid contains a partial atpI gene. To complete the atpI gene, the HindII-XhoI fragment of pASH20(-i) was replaced with a synthetic fragment with a complete atpI (Twist Bioscience) to yield pASH20. The sequence of the entire operon was verified by Sanger DNA sequencing through the ligation sites. Subunit c mutations were introduced by exchanging the XhoI-BamHI fragment containing atpE with a synthetic fragment containing mutated atpE (Twist Bioscience).
(§2) Vesicles were prepared from P. aeruginosa and transformed E. coli cells as previously described.[22] Briefly, cells were grown in LB liquid medium at 37 °C with shaking and harvested by centrifugation after 7 h of growth. Cultures of transformant E. coli included 100 μg/mL ampicillin. Cells were disrupted in TMG buffer (50 mM Tris-HCl, MgCl2, 10% (v/v) glycerol, pH 7.5) using an Avestin B15 homogenizer at 19,000 psi. After unbroken cells and debris were cleared by centrifugation at 9000g, inverted vesicles were collected by centrifugation at 193,000g, resuspended in TMG buffer, and stored at −80 °C. Protein concentrations were determined using a modified Lowry assay.[25]
(§3) Continuous ATP synthesis activity of inverted membrane vesicles was measured using a luciferin/luciferase luminescence assay as previously described.[22] Inhibition of ATP synthesis activity by test compounds was determined using an end point assay essentially as previously described.[18],[26] In this assay, the synthesis reaction was initiated by 2.5 mM NADH, proceeded for 10 min, and was stopped with 1% trichloroacetic acid, 2 mM CCCP, and 10 mM EDTA. Samples from each reaction were diluted 500-fold prior to the addition of luciferase since quinoline compounds are known to inhibit luciferase.[27] This dilution was sufficient to minimize inhibition of luciferase (Figure S4). Each replicate set included a positive control containing DMSO with no compound and a negative control containing carbonyl cyanide m-chlorophenyl hydrazone. Luminescence values were corrected for the background by subtracting the negative control and then normalized to the positive control within the same replicate. Dose–response curves were fit using eq 1, where activity is the relative ATP synthesis activity, [I] is the concentration of inhibitor in μg/mL, and n is the Hill coefficient. [drawing 1] 1

Assay [4] deals with T2, PA ATP synthase expressed in E. coli DK8/pASH20 (Pseudomonas aeruginosa, UniProt Q9HT15).
T2 construct: expressed in transfected cells; host or cells: E. coli K-12 DK8 (lacks its own ATP synthase) transformed with pASH20 (pBR322 derivative)
Put plainly: NADH-driven ATP synthesis inhibition, DK8/pASH20 membrane vesicles. The format is biochemical. As to the method: as §1, §2, §3

Another assay has as its system E. coli (ATCC 25922). Set-up: method as in PMID 35990476. Particulars: cited from earlier work.
Assay [5] deals with P. aeruginosa efflux knockout GKCW120 (PΔ6). Set-up: method as in PMID 35990476. Particulars: cited from earlier work.
Assay [6] concerns the target T3, PA ATP synthase (Pseudomonas aeruginosa, UniProt Q9HT15).
T3 construct: Inverted membrane vesicles were prepared from PA 9027; endogenous in cells; host or cells: Pseudomonas aeruginosa ATCC 9027, inverted membrane vesicles
The experiment in a line: NADH-driven ATP synthesis inhibition, PA inverted membrane vesicles. The class given is biochemical. The following applies: inhibition of ATP synthesis activity. As to the method:
as §2, §3

Assay [7] deals with T3, PA ATP synthase. More on the design: method as in PMID 35990476. Particulars: PA membrane vesicles; cited from earlier work.
The target in assay [8] is T4, PA ATP synthase cIle65Phe mutant (Pseudomonas aeruginosa, UniProt Q9HT15, I65F).
T4 construct: expressed in transfected cells; host or cells: E. coli K-12 DK8 transformed with pASH20 carrying mutated atpE
The experiment in a line: NADH-driven ATP synthesis inhibition, DK8/pASH20 cI65F membrane vesicles. The class given is biochemical. The procedure: as §1, §2, §3

Assay [9] has as its system PA electron transport chain. More on the design: method as in PMID 35990476. Particulars: PA vesicles; cited from earlier work.
Assay [10] relates to drug-resistant P. aeruginosa BAA 2108. Put plainly: Antimicrobial susceptibility (broth microdilution), BAA 2108. The class given is cell-based, Pseudomonas aeruginosa. The following applies: Pseudomonas aeruginosa, BAA2108, read-out: antibacterial activity (MIC) BAA 2108. As to the method: (§4) The following are general steps, unless otherwise noted. All steps were completed using aseptic techniques. All media and glassware were sterilized via an autoclave at 121 °C for 60 min. All agitation occurred at 160 rpm in a temperature-controlled console shaker (Excella E25) at 37 °C. Full-strength tryptic soy broth (TSB) was made by dissolving 30 g of BD Bacto TSB powder in 1 L of deionized water. Purchased and acquired bacterial strains used were E. coli (ATCC 25922), P. aeruginosa (ATCC 9027), drug-resistant P. aeruginosa from ATCC Panel MP-23 (BAA 2108, BAA 2109, BAA 2110), and P. aeruginosa efflux knockout GKCW120 (PΔ6)[6] provided by Zgurskaya and co-workers at the University of Oklahoma.
(§5) Susceptibility testing was performed in biological triplicate using the broth microdilution method as outlined by the Clinical and Laboratory Standards Institute. […] Briefly, to each well, 1 μL of compound in DMSO, 89 μL of TSB, and 10 μL of bacterial inoculum, grown from a single colony in 10 mL of TSB for 4–6 h, were added. After incubation for 12–15 h at 37 °C, absorbance at 590 nm was read on a Biotek Synergy HTX Multimode plate reader. Data were processed by background subtracting the media absorbance and then normalizing the data to full bacterial growth with the vehicle only. MIC is defined as the lowest concentration of antibiotic or antibiotic/adjuvant combination that achieves ≥85% growth inhibition, which corresponds to no visible growth.

Assay [11] has as its system drug-resistant P. aeruginosa BAA 2110. The experiment in a line: Antimicrobial susceptibility (broth microdilution), BAA 2110. The format is cell-based, Pseudomonas aeruginosa. The following applies: Pseudomonas aeruginosa, BAA2110, read-out: antibacterial activity (MIC) BAA 2110. As to the method: as §4, §5
Assay [12] concerns P. aeruginosa (ATCC 9027). Put plainly: Antimicrobial susceptibility (broth microdilution), PA 9027. The format is cell-based, Pseudomonas aeruginosa. Particulars: Pseudomonas aeruginosa, ATCC9027; n = 3; >85% reduction in growth at OD 590 nm; read-out: antibacterial activity (MIC) PA 9027. As to the method:
as §4, §5
(§6) Initial antibacterial activity screen of compounds 4, 5, and S1-S6
(§7) Compounds 4, 5, and S1-S6 were screened for initial antibiotic activity against a susceptible laboratory strain of EC (designated EC 25922), and non-virulent, biofilm forming strain of PA (designated PA 9027), and PD6 (efflux knockout strain6) at 128 µg/mL in DMSO. Sterilization and Antimicrobial Susceptibility Assay procedures utilized were the same as described in the methods.
(§8) Table S1. Antibacterial activity screening results for compounds 4, 5, and S1-S6 at 128 µg/mL
(§9) Table S1. Antibacterial activity screening results for compounds 4, 5, and S1-S6 at 128 µg/mL.

Assay [13] has as its system P. aeruginosa efflux knockout GKCW120 (PΔ6). Put plainly: Antimicrobial susceptibility (broth microdilution), PΔ6 efflux knockout. Particulars: n = 3; >85% reduction in growth at OD 590 nm. The class given is cell-based, Pseudomonas aeruginosa. The procedure:
as §4, §5, §6, §7, §8, §9

For assay [14], the system named is drug-resistant P. aeruginosa BAA 2109. Put plainly: Antimicrobial susceptibility (broth microdilution), BAA 2109. The class given is cell-based, Pseudomonas aeruginosa. The following applies: Pseudomonas aeruginosa, BAA2109, read-out: antibacterial activity (MIC) BAA 2109. The procedure: as §4, §5
Setting [15] is: inhibition of ATP synthesis activity.

Regarding `COC(=O)[C@H](Cc1ccc(O)cc1)NCc1cc2ccccc2nc1SC` [Compound 1, reference compound], the “antibacterial activity (MIC) PA 9027” value in [1] is above 256 µg/mL. Moreover, the “inhibition of EC ETC-driven H+ pumping, in words” value in assay [2] (0-64 µg/mL, Figure S2) is given as “did not inhibit the electron transport chain strongly”. In [2] (EC (DK8/pASH20) vesicles), the “Inhibition of the EC electron transport chain IC50” value was above 64 µg/mL. The IC50 in assay [3] (ATP synthesis IC50, DK8/pASH20 cI65A vesicles, cI65A mutant, NADH-driven, luminescence assay) is 18 µM; in assay [4] (ATP synthesis IC50, DK8/pASH20 vesicles, wild-type PA ATP synthase in E. coli DK8, NADH-driven, end point luminescence assay), 27.7 µM and 28.8 µM; in [8], 22 µM. In assay [3] (setting [15]), the “Hill coefficient of dose response fit, DK8/pASH20 cI65A vesicles” value was 1.1. For the same compound, the “Hill coefficient of dose response fit, DK8/pASH20 vesicles” value in assay [4] (setting [15]) is on record as 1.3. Besides, in the assay with E. coli (ATCC 25922), the “antibacterial activity (MIC) EC 25922” value was above 128 µg/mL. Further, the “antibacterial activity (MIC) PΔ6” value in [5] is above 256 µg/mL. On PA ATP synthase [6], the “Hill coefficient of dose response fit, PA vesicles” value came to 1.4. On PA ATP synthase [7], the “PA ATP synthesis IC50” value is 10.0 µg/mL. Moreover, in assay [8] (setting [15]), the “Hill coefficient of dose response fit, DK8/pASH20 cI65F vesicles” value is reported as 1.4. In assay [9], the “Inhibition of the PA electron transport chain IC50” value was >64[18] μg/mL.

As to `CNC(C)C1CCC(N)C(OC2C(N)CC(N)C(OC3OCC(C)(O)C(NC)C3O)C2O)O1` (stereo not shown) [gentamicin, reference compound], the MIC is 16 µg/mL in [10], 4 to 8 µg/mL in assay [11], 2 to 4 µg/mL in [12] and 2 µg/mL in assay [14]. For the same compound, in [13], the “antibacterial activity (MIC) PΔ6” value was above 4 µg/mL.

The record behind these values is PMC10714390, “Quinoline Compounds Targeting the c-Ring of ATP Synthase Inhibit Drug-Resistant Pseudomonas aeruginosa” (ACS Infectious Diseases, 2023).
